US20250154152A1, “INHIBITORS OF NAEGLERIA FOWLERI” (Wisconsin Alumni Research Foundation, priority 2023, published 2025)

Tested on: N. fowleri strain Nf69 (ATCC 30215) trophozoites
Test: Determination of EC50 values against Naegleria fowleri (growth inhibition, CellTiter Glo, 48 h)
Assay type: cell-based
Details: ATCC30215, N. fowleri Nf69 trophozoites, 48 h culture, 37° C., CellTiter Glo luminescence, read-out: EC50 uM against N. fowleri
Protocol: N. fowleri strain Nf69 (ATCC 30215) trophozoites were cultured axenically. Amoeba were seeded at […] in 100 μL of the indicated medium in white TC-treated 96-well plates (Thermo Scientific Nunc Microwell 136101). Cells were seeded into Nelson's Complete Media (NCM, 0.17% liver infusion broth (BD Difco, Franklin Lakes, NJ), 0.17% glucose, 0.012% sodium chloride, 0.0136% potassium phosphate monobasic, 0.0142% sodium phosphate dibasic, 0.0004% calcium chloride, 0.0002% magnesium sulfate, 10% heat-inactivated fetal bovine serum (FBS), 1% penicillin-streptomycin) at 37° C. in 96-well tissue culture plates. Vehicle or compound at concentrations initially ranging from 20 to 0.375 μM were added to cells, followed by culture for 48 h (37° C., 5% CO2). Plates were equilibrated to rt for 15 min and CellTiter Glo reagent was added followed by orbital shaking for 2 min. After an additional incubation (rt, 10 min), luminescence was scored on a BioTek Synergy H1 microplate reader. Luminescence values were used to calculate percent cell growth inhibition (based on controls) for each concentration of compound tested. Averages of triplicates were calculated and fit to dose-response curves for the determination of EC50 values, using Prism 9.0 (GraphPad Software, San Diego, CA). […] Other controls included media alone, cells and media, and vehicle and media. For very potent compounds, concentration of reagent in the dose-response assays were reduced to provide an appropriate range for EC50 value resolution.
Compounds of the present technology were tested for growth inhibition of N. fowleri per General Procedure 13, above.

SMILES	EC50 [µM]
O=c1c2cc(Cl)ccc2nc2n1CC[C@H]1NCCC[C@H]21 (racemic) [trans-6a, (±)-(4aR,13bS)-10-chloro-1,2,3,4,4a,5,6,13b-octahydro-8H-[1,6]naphthyridino[5,6-b]quinazolin-8-one]	1 to 10
O=c1c2cc(Cl)c(Cl)cc2nc2n1CC[C@H]1NCCC[C@H]21 (racemic) [trans-6b, (±)-(4aR,13bS)-10,11-dichloro-1,2,3,4,4a,5,6,13b-octahydro-8H-[1,6]naphthyridino[5,6-b]quinazolin-8-one]	1 to 10
COc1cc2nc3n(c(=O)c2cc1Cl)CC[C@H]1NCCC[C@H]31 (racemic) [trans-6c, (±)-(4aR,13bS)-10-chloro-11-methoxy-1,2,3,4,4a,5,6,13b-octahydro-8H-[1,6]naphthyridino[5,6-b]quinazolin-8-one]	1 to 10
CC(C)N1CCC[C@@H]2c3nc4cc(Cl)c(Cl)cc4c(=O)n3CC[C@H]21 (racemic) [trans-7a, (±)-(4aR,13bS)-10,11-dichloro-4-isopropyl-1,2,3,4,4a,5,6,13b-octahydro-8H-[1,6]naphthyridino[5,6-b]quinazolin-8-one]	0.0001 to 0.1
CC(C)NCCN1CCC[C@@H]2c3nc4cc(Cl)c(Cl)cc4c(=O)n3CC[C@H]21 (racemic) [trans-7aa, (±)-(4aR,13bS)-10,11-dichloro-4-(2-(isopropylamino)ethyl)-1,2,3,4,4a,5,6,13b-octahydro-8H-[1,6]naphthyridino[5,6-b]quinazolin-8-one]	0.1 to 1
O=c1c2cc(Cl)c(Cl)cc2nc2n1CC[C@@H]1[C@@H]2CCCN1CC1CCOCC1 (racemic) [trans-7b, (±)-(4aR,13bS)-10,11-dichloro-4-((tetrahydro-2H-pyran-4-yl)methyl)-1,2,3,4,4a,5,6,13b-octahydro-8H-[1,6]naphthyridino[5,6-b]quinazolin-8-one]	0.0001 to 0.1
O=c1c2cc(Cl)c(Cl)cc2nc2n1CC[C@@H]1[C@@H]2CCCN1Cc1cccnc1 (racemic) [trans-7bb, (±)-(4aR,13bS)-10,11-dichloro-4-(pyridin-3-ylmethyl)-1,2,3,4,4a,5,6,13b-octahydro-8H-[1,6]naphthyridino[5,6-b]quinazolin-8-one]	0.0001 to 0.1
CN(C)C(=O)CN1CCC[C@@H]2c3nc4cc(Cl)c(Cl)cc4c(=O)n3CC[C@H]21 (racemic) [trans-7c, (±)-2-((4aR,13bS)-10,11-dichloro-8-oxo-2,3,5,6,8,13b-hexahydro-1H-[1,6]naphthyridino[5,6-b]quinazolin-4(4aH)-yl)-N,N-dimethylacetamide]	0.1 to 1
CC(=O)CN1CCC[C@@H]2c3nc4cc(Cl)c(Cl)cc4c(=O)n3CC[C@H]21 (racemic) [trans-7cc, (±)-(4aR,13bS)-10,11-dichloro-4-(2-oxopropyl)-1,2,3,4,4a,5,6,13b-octahydro-8H-[1,6]naphthyridino[5,6-b]quinazolin-8-one]	0.0001 to 0.1
CC(C)(C)C(=O)N1CCC[C@@H]2c3nc4cc(Cl)c(Cl)cc4c(=O)n3CC[C@H]21 (racemic) [trans-7d, (±)-(4aR,13bS)-10,11-dichloro-4-pivaloyl-1,2,3,4,4a,5,6,13b-octahydro-8H-[1,6]naphthyridino[5,6-b]quinazolin-8-one]	> 10
COc1cc2nc3n(c(=O)c2cc1Cl)CC[C@@H]1[C@@H]3CCCN1CC1COC1 (racemic) [trans-7dd, (±)-(4aR,13bS)-10-chloro-11-methoxy-4-(oxetan-3-ylmethyl)-1,2,3,4,4a,5,6,13b-octahydro-8H-[1,6]naphthyridino[5,6-b]quinazolin-8-one]	0.0001 to 0.1
O=C(C1CCOCC1)N1CCC[C@@H]2c3nc4cc(Cl)c(Cl)cc4c(=O)n3CC[C@H]21 (racemic) [trans-7e, (±)-(4aR,13bS)-10,11-dichloro-4-(tetrahydro-2H-pyran-4-carbonyl)-1,2,3,4,4a,5,6,13b-octahydro-8H-[1,6]naphthyridino[5,6-b]quinazolin-8-one]	> 10
COc1cc2nc3n(c(=O)c2cc1Cl)CC[C@@H]1[C@@H]3CCCN1CC(C)C (racemic) [trans-7ee, (±)-(4aR,13bS)-10-chloro-4-isobutyl-11-methoxy-1,2,3,4,4a,5,6,13b-octahydro-8H-[1,6]naphthyridino[5,6-b]quinazolin-8-one]	0.1 to 1
O=C(N1CCOCC1)N1CCC[C@@H]2c3nc4cc(Cl)c(Cl)cc4c(=O)n3CC[C@H]21 (racemic) [trans-7f, (±)-(4aR,13bS)-10,11-dichloro-4-(morpholine-4-carbonyl)-1,2,3,4,4a,5,6,13b-octahydro-8H-[1,6]naphthyridino[5,6-b]quinazolin-8-one]	> 10
COc1cc2nc3n(c(=O)c2cc1Cl)CC[C@@H]1[C@@H]3CCCN1CCOC(C)C (racemic) [trans-7ff, (±)-(4aR,13bS)-10-chloro-4-(2-isopropoxyethyl)-11-methoxy-1,2,3,4,4a,5,6,13b-octahydro-8H-[1,6]naphthyridino[5,6-b]quinazolin-8-one]	0.1 to 1
CN(C)CC(=O)N1CCC[C@@H]2c3nc4cc(Cl)c(Cl)cc4c(=O)n3CC[C@H]21 (racemic) [trans-7g, (±)-(4aR,13bS)-10,11-dichloro-4-(dimethylglycyl)-1,2,3,4,4a,5,6,13b-octahydro-8H-[1,6]naphthyridino[5,6-b]quinazolin-8-one]	0.1 to 1
COc1cc2nc3n(c(=O)c2cc1Cl)CC[C@@H]1[C@@H]3CCCN1CC1CC1 (racemic) [trans-7gg, (±)-(4aR,13bS)-10-chloro-4-(cyclopropylmethyl)-11-methoxy-1,2,3,4,4a,5,6,13b-octahydro-8H-[1,6]naphthyridino[5,6-b]quinazolin-8-one]	0.0001 to 0.1
O=C(c1ccccc1)N1CCC[C@@H]2c3nc4cc(Cl)c(Cl)cc4c(=O)n3CC[C@H]21 (racemic) [trans-7h, (±)-(4aR,13bS)-4-benzoyl-10,11-dichloro-1,2,3,4,4a,5,6,13b-octahydro-8H-[1,6]naphthyridino[5,6-b]quinazolin-8-one]	> 10
COc1cc2nc3n(c(=O)c2cc1Cl)CC[C@@H]1[C@@H]3CCCN1CC1CCC1 (racemic) [trans-7hh, (±)-(4aR,13bS)-10-chloro-4-(cyclobutylmethyl)-11-methoxy-1,2,3,4,4a,5,6,13b-octahydro-8H-[1,6]naphthyridino[5,6-b]quinazolin-8-one]	0.0001 to 0.1
COCCN1CCC[C@@H]2c3nc4cc(Cl)c(Cl)cc4c(=O)n3CC[C@H]21 (racemic) [trans-7i, (±)-(4aR,13bS)-10,11-dichloro-4-(2-methoxyethyl)-1,2,3,4,4a,5,6,13b-octahydro-8H-[1,6]naphthyridino[5,6-b]quinazolin-8-one]	0.0001 to 0.1
COc1cc2nc3n(c(=O)c2cc1Cl)CC[C@@H]1[C@@H]3CCCN1Cc1cccnc1 (racemic) [trans-7ii, (±)-(4aR,13bS)-10-chloro-11-methoxy-4-(pyridin-3-ylmethyl)-1,2,3,4,4a,5,6,13b-octahydro-8H-[1,6]naphthyridino[5,6-b]quinazolin-8-one]	0.1 to 1
O=c1c2cc(Cl)c(Cl)cc2nc2n1CC[C@@H]1[C@@H]2CCCN1CCO (racemic) [trans-7j, (±)-(4aR,13bS)-10,11-dichloro-4-(2-hydroxyethyl)-1,2,3,4,4a,5,6,13b-octahydro-8H-[1,6]naphthyridino[5,6-b]quinazolin-8-one]	0.0001 to 0.1
COc1cc2nc3n(c(=O)c2cc1C#N)CC[C@@H]1[C@@H]3CCCN1C (racemic) [trans-7jj, (±)-(4aR,13bS)-11-methoxy-4-methyl-8-oxo-2,3,4,4a,5,6,8,13b-octahydro-1H-[1,6]naphthyridino[5,6-b]quinazoline-10-carbonitrile]	1 to 10
O=c1c2cc(Cl)c(Cl)cc2nc2n1CC[C@@H]1[C@@H]2CCCN1Cc1ccncc1 (racemic) [trans-7k, (±)-(4aR,13bS)-10,11-dichloro-4-(pyridin-4-ylmethyl)-1,2,3,4,4a,5,6,13b-octahydro-8H-[1,6]naphthyridino[5,6-b]quinazolin-8-one]	0.1 to 1
COc1cc2nc3n(c(=O)c2cc1C#N)CC[C@@H]1[C@@H]3CCCN1CC1COC1 (racemic) [trans-7kk, (±)-(4aR,13bS)-11-methoxy-4-(oxetan-3-ylmethyl)-8-oxo-2,3,4,4a,5,6,8,13b-octahydro-1H-[1,6]naphthyridino[5,6-b]quinazoline-10-carbonitrile]	0.1 to 1
CC(C)CN1CCC[C@@H]2c3nc4cc(Cl)c(Cl)cc4c(=O)n3CC[C@H]21 (racemic) [trans-7l, (±)-(4aR,13bS)-10,11-dichloro-4-isobutyl-1,2,3,4,4a,5,6,13b-octahydro-8H-[1,6]naphthyridino[5,6-b]quinazolin-8-one]	0.0001 to 0.1
O=c1c2cc(Cl)c(Cl)cc2nc2n1CC[C@@H]1[C@@H]2CCCN1CC1COC1 (racemic) [trans-7m, (±)-(4aR,13bS)-10,11-dichloro-4-(oxetan-3-ylmethyl)-1,2,3,4,4a,5,6,13b-octahydro-8H-[1,6]naphthyridino[5,6-b]quinazolin-8-one]	0.0001 to 0.1
